{
  "source": "patent US8648105B2",
  "about": "“Diarylthiohydantoin compounds” (The Regents of the University of California, priority 2006, dated 2014)",
  "key": {"[1]": {"test": "Ranking of compounds in tiers for utility in treating prostate cancer", "excerpt": "The placement of compounds into tiers was based on available data coupled with analytical judgment. Data considered included in vitro assays (AR response reporter system in LNCaP cell line, PSA level measurement, MTS mitochondrial assay) and in vivo experiments (tumor size measured directly or by emission induced by luciferase reporter gene, pharmacokinetic assays based on blood plasma levels). Not every compound was subjected to each assay. Not all data that was generated is shown. Judgment was applied in ranking compounds relative to each other for their utility in treating prostate cancer, in particular when ranking two compounds for which the same experiments were not performed."}, "SkBr3": {"tested_on": "SkBr3", "test": "Growth effect on SkBr3 cells", "format": "cell-based", "details": "SkBr3 breast cancer cells"}, "DU-145 cells": {"tested_on": "DU-145 cells", "test": "MTS growth assay in DU-145 cells", "format": "cell-based", "details": "DU-145, lacks AR expression"}, "MCF7": {"tested_on": "MCF7", "test": "Growth effect on MCF7 cells", "format": "cell-based", "details": "MCF7 breast cancer cells"}, "3T3": {"tested_on": "3T3", "test": "Growth effect on 3T3 cells", "format": "cell-based", "details": "3T3 normal mouse fibroblast cell line"}, "AR [2]": {"target": "T1, AR (Homo sapiens, UniProt P10275)", "T1 sequence (P10275 1-920)": "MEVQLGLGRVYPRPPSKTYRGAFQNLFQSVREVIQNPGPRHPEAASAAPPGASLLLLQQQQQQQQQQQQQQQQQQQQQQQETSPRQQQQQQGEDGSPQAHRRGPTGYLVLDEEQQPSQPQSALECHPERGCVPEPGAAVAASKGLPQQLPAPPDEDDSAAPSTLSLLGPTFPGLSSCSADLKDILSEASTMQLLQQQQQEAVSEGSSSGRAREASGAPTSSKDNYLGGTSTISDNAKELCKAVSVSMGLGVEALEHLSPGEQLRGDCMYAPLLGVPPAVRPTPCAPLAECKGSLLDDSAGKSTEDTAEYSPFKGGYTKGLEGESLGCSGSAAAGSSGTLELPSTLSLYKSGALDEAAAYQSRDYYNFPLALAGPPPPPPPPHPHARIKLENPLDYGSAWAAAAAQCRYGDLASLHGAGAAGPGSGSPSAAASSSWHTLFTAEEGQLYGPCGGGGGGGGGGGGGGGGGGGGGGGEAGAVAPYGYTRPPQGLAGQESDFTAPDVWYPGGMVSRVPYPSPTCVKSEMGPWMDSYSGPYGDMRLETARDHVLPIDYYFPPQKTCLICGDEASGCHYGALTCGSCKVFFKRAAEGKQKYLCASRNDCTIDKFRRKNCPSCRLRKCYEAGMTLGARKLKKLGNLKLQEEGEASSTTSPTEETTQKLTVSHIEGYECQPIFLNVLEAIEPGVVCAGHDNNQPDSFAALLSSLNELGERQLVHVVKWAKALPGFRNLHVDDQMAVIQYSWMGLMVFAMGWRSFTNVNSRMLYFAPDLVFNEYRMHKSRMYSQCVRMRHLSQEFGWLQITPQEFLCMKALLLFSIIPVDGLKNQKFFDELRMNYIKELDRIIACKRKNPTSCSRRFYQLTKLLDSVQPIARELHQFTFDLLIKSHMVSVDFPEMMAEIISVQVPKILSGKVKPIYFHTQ", "format": "cell-based", "parameters": "Fold induction, AR response reporter", "procedure": "It is well established that PSA levels are indicators of AR activities in prostate cancer. […] The LNCaP-AR cells are a line of lymph node carcinoma of prostate cells transduced with a plasmid that makes express androgen receptors. […] After four days incubation, secreted PSA levels were assayed using PSA ELISA kits (American Qualex, San Clemente, Calif.)"}, "androgen receptor": {"target": "T2, androgen receptor (Homo sapiens, UniProt P10275, T878A)", "T2 sequence (P10275 1-920 T878A)": "T1 sequence (P10275 1-920) with T878A", "details": "10 uM (R1881 1 nM), LNCaP"}, "AR [3]": {"target": "T1, AR", "format": "cell-based", "parameters": "Fold induction, AR response reporter", "details": "LN-AR, absence of R1881", "procedure": "Activities of AR response reporter were measured."}, "AR [4]": {"target": "T1, AR", "format": "cell-based", "parameters": "Fold induction, AR response reporter", "details": "for inhibitory activity on AR response reporter: hormone refractory LNCaP-AR", "procedure": "(§1) The compounds were subjected to tests using an artificial AR response reporter system in a hormone refractory prostate cancer cell line. […] After two days of incubation, reporter activities were assayed."}, "AR [5]": {"target": "T1, AR", "format": "cell-based", "parameters": "Fold induction, AR response reporter", "details": "AR over expressed LNCaP, absence of R1881"}, "LIAR cell line": {"tested_on": "LIAR cell line", "test": "Luciferase activity of the LIAR cell line (FIG. 25)", "format": "cell-based", "details": "125 nmol to 1000 nmol", "from_the_text": "FIG. 25 is a graph of luciferase activity of the LIAR cell line dosed with various compounds administered at concentrations ranging from 125 nmol to 1000 nmol.\nThe inventors have determined that what might appear to be a small change in the structure of hydantoin compounds may result in a large change in that compound's performance in treating prostate cancer."}, "LogP": {"test": "LogP", "format": "physicochemical"}, "[6]": {"test": "Pharmacokinetics, drug concentration in mouse serum/plasma by HPLC", "details": "in vivo", "description": "Mice were divided into groups of three for each time points. Two mice were not treated with drug and two other mice were treated with vehicle solution. Each group was treated with 10 mg per kilogram of body weight.\nThe drug was dissolved in a mixture 1:5:14 of DMSO:PEG400: H20. (Vehicle solution) and was administered into mice through the tail vein. The animals are warmed under a heat lamp for approximately 20 minutes prior to treatment to dilate their tail vein. […] After drug administration, the animals were euthanized via CO2 inhalation at different timepoints: 5 nm, 30 nm, 2 h, 6 h, 16 h. Animals were immediately bleed after exposure to CO2 via cardiac puncture (1 ml BD syringe+27 G ⅝ needle).\nThe samples for HPLC analysis were prepared according to the following procedure:\nBlood cells were separated from serum by centrifugation.\nTo 400 μl of serum were added 80 μl of a 10 μM solution of an internal standard and 520 μl of acetonitrile. Precipitation occurred.\nThe mixture was vortexed for 3 minutes and then placed under ultrasound for 30 minutes.\nThe solid particles were filtered off or were separated by centrifugation.\nThe filtrate was dried under an argon flow to dryness."}, "AR [7]": {"tested_on": "AR", "format": "cell-based", "details": "FIG. 24", "procedure": "as §1"}},
  "note": "Changes are numbered by the printed parent chain.",
  "data": [
    {"smiles": "Cc1ccc(N2C(=S)N(c3ccc(C#N)c(Cl)c3)C(=O)C2(C)C)cc1", "note": "[NC107]", "values": [
      {"measurement": "activity remarks in the ranking", "setting": "[1]", "value": "very poor activity"}
    ]},
    {"smiles": "Cc1ccc(N2C(=S)N(c3ccc(C#N)c(C(F)(F)F)c3)C(=O)C2(C)C)cc1", "note": "[NC2, 4-[3-(4-methylphenyl)-4,4-dimethyl-5-oxo-2-thioxoimidazolidin-1-yl]-2-trifluoromethyl-benzonitrile]", "values": [
      {"measurement": "growth effect", "setting": "SkBr3", "value": "no growth effect"},
      {"measurement": "growth inhibitory effect", "setting": "DU-145 cells", "value": "no growth inhibitory effect"},
      {"measurement": "growth effect", "setting": "MCF7", "value": "no growth effect"},
      {"measurement": "growth effect", "setting": "3T3", "value": "no growth effect"}
    ]},
    {"smiles": "C[C@]1(O)CC[C@H]2[C@@H]3CCC4=CC(=O)CCC4=C3C=C[C@@]21C", "note": "[R1881, methyltrienolone, reference compound]", "values": [
      {"measurement": "induction of secreted PSA level", "setting": "AR [2]", "value": "strongly induced"},
      {"measurement": "androgen receptor nuclear translocation", "setting": "androgen receptor", "value": "nuclear translocation of the androgen receptor occurred"}
    ]},
    {"smiles": "CN1C(=S)N(c2ccc(C#N)c(C(F)(F)F)c2)C(=O)C12CCC2", "note": "[NC24, 4-(5-methyl-8-oxo-6-thioxo-5,7-diazaspiro[3.4]oct-7-yl)-2-trifluoromethylenzonitrile, reference compound]", "values": [
      {"measurement": "agonistic activity on AR response reporter", "setting": "AR [3]", "value": "strongly activated AR"},
      {"measurement": "inhibitory activity on AR response reporter", "setting": "AR [4]", "value": "no inhibitory activities"},
      {"measurement": "agonistic activity on secreted PSA", "setting": "AR [5]", "value": "stimulated PSA expression"}
    ]},
    {"smiles": "CN1C(=S)N(c2ccc(C#N)c(C(F)(F)F)c2)C(=O)C12CCCC2", "note": "[NC26, 4-(1-methyl-4-oxo-2-thioxo-1,3-diazaspiro[4.4]non-3-yl)-2-trifluoromethylbenzonitrile, reference compound]", "values": [
      {"measurement": "agonistic activity on AR response reporter", "setting": "AR [3]", "value": "strongly activated AR"},
      {"measurement": "inhibitory activity on AR response reporter", "setting": "AR [4]", "value": "no inhibitory activities"},
      {"measurement": "agonistic activity on secreted PSA", "setting": "AR [5]", "value": "stimulated PSA expression"}
    ]},
    {"smiles": "CNC(=O)c1ccc(N2C(=S)N(c3ccc(C#N)c(C(F)(F)F)c3)C(=O)C23CCC3)cc1", "note": "[NC77]", "values": [
      {"measurement": "luciferase activity (comparison)", "setting": "LIAR cell line", "value": "less than the luciferase activity upon exposure to NC98"},
      {"measurement": "luciferase activity in LNCaP-AR cells", "setting": "AR [4]; 125 nM to 1000 nM, FIG. 3", "value": "acted to reduce luciferase activity"},
      {"measurement": "rank by relative luciferase activity, most active to least active", "setting": "AR [4]; 500 nM, FIG. 3", "value": "NC67>NC68>NC66>NC69>NC77=NC53>bicalutamide"}
    ]},
    {"smiles": "Cc1ccc(N2C(=S)N(c3ccc(C#N)c(I)c3)C(=O)C2(C)C)cc1", "note": "[NC63]", "values": [
      {"measurement": "activity remarks in the ranking", "setting": "[1]", "value": "good activity"}
    ]},
    {"smiles": "CNC(=O)CCCc1ccc(N2C(=S)N(c3ccc(C#N)c(C(F)(F)F)c3)C(=O)C23CCC3)cc1", "note": "[NC48, 4-{4-[7-(4-Cyano-3-trifluoromethylphenyl)-8-oxo-6-thioxo-5,7-diaza-spiro[3.4]oct-5-yl]-phenyl}-N-methyl-butyramide]", "values": [
      {"measurement": "activity remarks in the ranking", "setting": "[1]", "value": "particularly advantageous"},
      {"measurement": "logP", "setting": "LogP", "value": 3.44},
      {"measurement": "rank by relative PSA level, most active to least active", "setting": "AR [2]; 500 nM", "value": "NC50>NC48>NC7>NC43>NC44>NC49>NC50>NC45>bicalutamide"},
      {"measurement": "decrease in PSA level of LNCaP-AR cells (comparison)", "setting": "AR [2]; 1000 nM", "value": "greater decrease in PSA level of LNCaP-AR cells than NC43, NC44, and NC50"},
      {"measurement": "PSA levels", "setting": "AR [2]; LN-AR cells, FIG. 23", "value": "PSA levels decreased"},
      {"measurement": "PSA level (comparison)", "setting": "AR [2]; LN/AR cell line, 125 nmol to 1000 nmol", "value": "less than the PSA level upon exposure to NC42 and NC46"},
      {"measurement": "pharmacokinetic behavior, residence time in blood", "setting": "[6]", "value": "metabolize fast"},
      {"measurement": "IC50 (comparison)", "setting": "AR [7]", "value": "much lower than the IC50 for bicalutamide"}
    ]},
    {"smiles": "CC1(C)C(=O)N(c2ccc(C#N)c(C(F)(F)F)c2)C(=S)N1CCCCO", "note": "[Example 29, 4-[3-(4-hydroxybutyl)-4,4-dimethyl-5-oxo-2-thioxoimidazolidin-1-yl]-2-trifluoromethylbenzonitrile, reference compound]", "values": [
      {"measurement": "agonistic activity on AR response reporter", "setting": "AR [3]", "value": "strongly activated AR"},
      {"measurement": "IC50 (nM) Reporter", "setting": "AR [4]; LNCaP-AR, 100 pM R1881, two days, No = did not inhibit AR response reporter", "value": "No (*)"},
      {"measurement": "agonistic activity on secreted PSA", "setting": "AR [5]", "value": "stimulated PSA expression"}
    ]}
  ]
}
